Results published in patent US20230150980A1, “COLLAGEN 1 TRANSLATION INHIBITORS AND METHODS OF USE THEREOF” (Anima Biotech Inc., priority 2020, published 2023).

Test system: collagen 1
Assay: WI-38 collagen 1 inhibition assay (anti-Collagen I immunofluorescence);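 note: minus sign means inactive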
Assay type: cell-based
Settings: cellular EC50, WI-38 human lung fibroblasts, values are LogEC50 classes
Protocol: WI-38 cells (ATCC® CCL-75™) were maintained in MEM EAGLE (NEAA) W. GLUTAMIN (Biological Industries, Cat. 06-1040-15-1A) containing 10% fetal bovine serum (FBS) and 1% Penicillin-Streptomycin Solution. To synchronize the cells (cell cycle synchronization) prior to induction of collagen synthesis, the cells were starved using DMEM-low glucose supplemented with 0.25% FBS for two hours and then without FBS for 24 hours. To induce collagen synthesis, the cells were treated with a collagen induction cocktail for the indicated time. Compounds were added with induction.
Cells in 96-well or 384-well plates were fixed for 20 min in 4% paraformaldehyde (PFA, ENCO, Cat. sc-281692). Following two washes with 1×PBS, cells were treated with hydrogen peroxide (Acros, Cat: 7722-84-1) for 10 minutes and then washed twice with 1×PBS. Cells were then incubated over-night at 4° C. with Anti-Collagen I (Sigma-Aldrich, Cat: C 2456) antibody and washed three times with 1×PBS. Cell were then incubated with a suitable secondary fluorescently-tagged antibody and nuclei stained with DAPI, for 1 hour, and then washed 3 times with 1×PBS.
Cell images were taken with Operetta (Perkin Elmer, USA), a wide-field fluorescence microscope at 20× magnification. After acquisition, the images were transferred to Columbus software (Perkin-Elmer) for image analysis. In Columbus, cells were identified by their nucleus, using the “Find Nuceli” module and cytoplasm was detected based on the secondary antibody channel. Subsequently, the fluorescent signal was enumerated in the identified cell region. Data was exported to a data analysis and visualization software, Tibco Spotfire, USA.

Structure (SMILES) | COL1 Efficacy (LogEC50)
C[C@@H]1CN(Cc2cc3ccccc3[nH]2)C[C@H](C)N1c1ccncc1 [compound 276, 2-[[(3S,5R)-3,5-dimethyl-4-(4-pyridyl)piperazin-1-yl]methyl]-1H-indole] | −
Cc1ncnc(N2CC3CC2CN3Cc2nc3ccc(F)cc3o2)c1C (centres unmarked) [compound 334, 2-((5-(5,6-dimethylpyrimidin-4-yl)-2,5-diazabicyclo[2.2.1]heptan-2-yl)methyl)-6-fluorobenzo[d]oxazole] | +++ (+++: <−6)
c1ccc2[nH]c(CN3CCN(c4nccs4)CC3)cc2c1 [Compound 229, 2-[4-(1H-indol-2-ylmethyl)piperazin-1-yl]thiazole] | ++ (++: −5 to −6)
CCCN1CCN(Cc2cc3ccccc3[nH]2)CC1 [Compound 230, 2-[(4-propylpiperazin-1-yl)methyl]-1H-indole] | + (+: >−5)
Cc1ncnc(N2CCN(Cc3nc4ccccc4s3)CC2)c1C [compound 254, 2-[[4-(5,6-dimethylpyrimidin-4-yl)piperazin-1-yl]methyl]-1,3-benzothiazole] | +++ (+++: <−6)
c1ccc2[nH]c(CN3CCN(c4nccc5ccccc45)CC3)cc2c1 [compound 234] | + (+: >−5)
O=C(C1CCCCC1)N1CCN(Cc2cc3ccccc3[nH]2)CC1 [Compound 232, Cyclohexyl-[4-(1H-indol-2-ylmethyl)piperazin-1-yl]methanone] | ++ (++: −5 to −6)
Cn1cnc(N2CCN(Cc3nc4ccccc4o3)CC2)c1 [compound 340] | −
Cc1ncnc(N2CCN(Cc3cc4ccccc4[nH]3)CC2)c1C [Compound 202, 2-((4-(5,6-dimethylpyrimidin-4-yl)piperazin-1-yl)methyl)-1H-indole] | +++ (+++: <−6)
CC(C)CC(=O)N1CCN(Cc2cc3ccccc3[nH]2)CC1 [Compound 239, 1-[4-(1H-indol-2-ylmethyl)piperazin-1-yl]-3-methyl-butan-1-one] | ++ (++: −5 to −6)
CC(=O)Nc1ccc2[nH]c(CN3CCN(c4ccncc4)CC3)cc2c1 [compound 258, N-[2-[[4-(4-pyridyl)piperazin-1-yl]methyl]-1H-indol-5-yl]acetamide] | ++ (++: −5 to −6)
c1ccc2[nH]c(CN3CCN(C4CCCC4)CC3)cc2c1 [Compound 233, 2-[(4-cyclopentylpiperazin-1-yl)methyl]-1H-indole] | + (+: >−5)
c1ccc2[nH]c(CN3CCN(c4nccc5occc45)CC3)cc2c1 [Compound 235, 4-[4-(1H-indol-2-ylmethyl)piperazin-1-yl]furo[3,2-c]pyridine] | + (+: >−5)
c1ccn2nc(CN3CCN(c4ccncc4)CC3)cc2c1 [compound 283, 2-((4-(pyridin-4-yl)piperazin-1-yl)methyl)pyrazolo[1,5-a]pyridine 2,2,2-trifluoroacetate] | −
Cn1nccc1N1CCN(Cc2nc3ccccc3o2)CC1 [compound 325] | −
Cc1ncnc(N2CCN(Cc3nc4ccc(C(F)(F)F)cc4[nH]3)CC2)c1C [Compound 201, 2-((4-(5,6-dimethylpyrimidin-4-yl)piperazin-1-yl)methyl)-6-(trifluoromethyl)-1H-benzo[d]imidazole] | +++ (+++: <−6)
Cc1ncnc(N2CCN(Cc3nc4ccccc4o3)CC2)c1C [compound 259, 2-[[4-(5,6-dimethylpyrimidin-4-yl)piperazin-1-yl]methyl]-1,3-benzoxazole] | +++ (+++: <−6)
Cc1ncnc(N2CCN(Cc3nc4cc(C(F)(F)F)ccc4o3)CC2)c1C [compound 299, 2-((4-(5,6-dimethylpyrimidin-4-yl)piperazin-1-yl)methyl)-5-(trifluoromethyl)benzo[d]oxazole] | +++ (+++: <−6)

Structure (SMILES) | COL1 Efficacy (LogEC50)
Cc1cc2c(N3CCN(Cc4nc5ccccc5[nH]4)CC3)ncnc2s1 [compound 205] | ++ (++: −5 to −6)
N#Cc1c(CN2CCN(c3ccncc3)CC2)[nH]c2ccccc12 [compound 280, 2-[[4-(4-pyridyl)piperazin-1-yl]methyl]-1H-indole-3-carbonitrile] | −
O=C(c1cc2ccccc2[nH]1)N1CCN(c2ccncc2)CC1 [compound 244, (1H-indol-2-yl)(4-(pyridin-4-yl)piperazin-1-yl)methanone] | + (+: >−5)
FC(F)(F)c1cccnc1N1CCN(Cc2cc3ccccc3[nH]2)CC1 [Compound 225, 2-[[4-[3-(trifluoromethyl)-2-pyridyl]piperazin-1-yl]methyl]-1H-indole] | + (+: >−5)
Cc1ncnc(N2CCN(C3(c4nc5ccccc5o4)CC3)CC2)c1C [compound 321, 2-(1-(4-(5,6-dimethylpyrimidin-4-yl)piperazin-1-yl)cyclopropyl)benzo[d]oxazole] | ++ (++: −5 to −6)
CCc1cncnc1N1CCN(Cc2nc3ccc(OCCOC)cc3[nH]2)CC1 [compound 290, 2-((4-(5-ethylpyrimidin-4-yl)piperazin-1-yl)methyl)-6-(2-methoxyethoxy)-1H-benzo[d]imidazole] | ++ (++: −5 to −6)
Cn1cc(N2CCN(Cc3nc4ccc(F)cc4o3)CC2)nn1 [compound 323] | −
c1ccc2[nH]c(CN3CCC(Oc4ccncc4)CC3)cc2c1 [compound 268, 2-[[4-(4-pyridyloxy)-1-piperidyl]methyl]-1H-indole] | ++ (++: −5 to −6)
FC(F)(F)c1ccc2nc(CN3CCN(c4ccncn4)CC3)[nH]c2c1 [Compound 203, 2-((4-(pyrimidin-4-yl)piperazin-1-yl)methyl)-6-(trifluoromethyl)-1H-benzo[d]imidazole] | ++ (++: −5 to −6)
c1cc(N2CCN(Cc3cc4ccncc4[nH]3)CC2)ccn1 [compound 270, 2-[[4-(4-pyridyl)piperazin-1-yl]methyl]-1H-pyrrolo[2,3-c]pyridine] | −
Cc1ncnc(N2CCN(Cc3nc4ccc(C(F)(F)F)cc4o3)CC2)c1C [compound 303, 2-((4-(5,6-dimethylpyrimidin-4-yl)piperazin-1-yl)methyl)-6-(trifluoromethyl)benzo[d]oxazole] | +++ (+++: <−6)
OC1(c2ccncc2)CCN(Cc2cc3ccccc3[nH]2)CC1 [compound 267, 1-(1H-indol-2-ylmethyl)-4-(4-pyridyl)piperidin-4-ol] | −
c1ccc2[nH]c(CN3CCN(c4cc(-n5cccn5)ncn4)CC3)nc2c1 [compound 208] | ++ (++: −5 to −6)
CS(=O)(=O)Nc1ccc2[nH]c(CN3CCN(c4ccncc4)CC3)cc2c1 [compound 251, N-[2-[[4-(4-pyridyl)piperazin-1-yl]methyl]-1H-indol-5-yl]methanesulfonamide] | + (+: >−5)
Brc1ccc2cc(CN3CCN(c4ccncc4)CC3)[nH]c2c1 [compound 224, 6-bromo-2-[[4-(4-pyridyl)piperazin-1-yl]methyl]-1H-indole] | + (+: >−5)
COc1ccc2cc(CN3CCN(c4ccncc4)CC3)[nH]c2c1 [compound 228, 6-methoxy-2-[[4-(4-pyridyl)piperazin-1-yl]methyl]-1H-indole] | + (+: >−5)
c1cc(CN2CCN(c3ccncc3)CC2)c2[nH]ccc2c1 [compound 262, 7-[[4-(4-pyridyl)piperazin-1-yl]methyl]-1H-indole] | −
